In US20240043404A1 (AbbVie Inc., priority 2009, published 2024):

Tested on: RS4;11 cells
Experiment: RS4;11 cell viability assay (CellTiter Glo);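 note: acute lymphoblastic leukemia line RS4,11, EC50 derived from percentage of viable cells after treatment relative to untreated controls, cell killing taken as a measure of Bcl-2 inhibition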
Format: cell-based, human
Conditions: Homo sapiens, RS4-11, 48 h, 50,000 cells per well, 10% human serum, 48 hours; read-out: RS4; 11 EC50 Values
Procedure: The acute lymphoblastic leukemia (ALL) cell line RS4;11 was used as the primary human cell line to assess the cellular activity of Bcl-2 selective agents in vitro and their efficacy in vivo.
Cell cytotoxicity EC50 values were assessed using CellTiter Glo (Promega) according to the manufacturer's recommendations. The EC50 values were determined as a percentage of viable cells following treatment compared to the untreated control cells.

| SMILES | EC50 |
| --- | --- |
| CC1(C)CCC(CN2CCN(c3ccc(C(=O)NS(=O)(=O)c4ccc(NCC5(F)CCOCC5)c([N+](=O)[O-])c4)c(Oc4cnc5[nH]ccc5c4)c3)CC2)=C(c2ccc(Cl)cc2)C1 [Example 138, 4-(4-{[2-(4-chlorophenyl)-4,4-dimethylcyclohex-1-en-1-yl]methyl}piperazin-1-yl)-N-[(4-{[(4-fluorotetrahydro-2H-pyran-4-yl)methyl]amino}-3-nitrophenyl)sulfonyl]-2-(1H-pyrrolo[2,3-b]pyridin-5-yloxy)benzamide] | 1.52 nM |
| CC1(C)CCC(CN2CCN(c3ccc(C(=O)NS(=O)(=O)c4ccc(NC5CCN(C(C)(C)C)CC5)c(S(=O)(=O)C(F)(F)F)c4)c(Oc4cnc5[nH]ccc5c4)c3)CC2)=C(c2ccc(Cl)cc2)C1 [Example 240, N-({4-[(1-tert-butylpiperidin-4-yl)amino]-3-[(trifluoromethyl)sulfonyl]phenyl}sulfonyl)-4-(4-{[2-(4-chlorophenyl)-4,4-dimethylcyclohex-1-en-1-yl]methyl}piperazin-1-yl)-2-(1H-pyrrolo[2,3-b]pyridin-5-yloxy)benzamide] | 17.3 nM |
| CN1CCC(Nc2ccc(S(=O)(=O)NC(=O)c3ccc(N4CCN(CC5=C(c6ccc(Cl)cc6)CC(C)(C)OC5)CC4)cc3Oc3cnc4[nH]ccc4c3)cc2S(=O)(=O)C(F)(F)F)CC1 [Example 45, 4-(4-{[4-(4-chlorophenyl)-6,6-dimethyl-5,6-dihydro-2H-pyran-3-yl]methyl}piperazin-1-yl)-N-({4-[(1-methylpiperidin-4-yl)amino]-3-[(trifluoromethyl)sulfonyl]phenyl}sulfonyl)-2-(1H-pyrrolo[2,3-b]pyridin-5-yloxy)benzamide] | 9.92 nM |
| CC1(C)CCC(CN2CCN(c3ccc(C(=O)NS(=O)(=O)c4ccc(O[C@H]5CC[C@H](N6CCOCC6)CC5)c([N+](=O)[O-])c4)c(Oc4cnc5[nH]ccc5c4)c3)CC2)=C(c2ccc(Cl)cc2)C1 [Example 60, Trans-4-(4-{[2-(4-chlorophenyl)-4,4-dimethylcyclohex-1-en-1-yl]methyl}piperazin-1-yl)-N-({4-[(4-morpholin-4-ylcyclohexyl)oxy]-3-nitrophenyl}sulfonyl)-2-(1H-pyrrolo[2,3-b]pyridin-5-yloxy)benzamide] | 59.5 nM |
| CC1(C)CCC(CN2CCN(c3ccc(C(=O)NS(=O)(=O)c4ccc(NCC5CN(S(C)(=O)=O)CCO5)c([N+](=O)[O-])c4)c(Oc4cnc5[nH]ccc5c4)c3)CC2)=C(c2ccc(Cl)cc2)C1 (stereo not shown) [Example 319, 4-(4-{[2-(4-chlorophenyl)-4,4-dimethylcyclohex-1-en-1-yl]methyl}piperazin-1-yl)-N-{[4-({[4-(methylsulfonyl)morpholin-2-yl]methyl}amino)-3-nitrophenyl]sulfonyl}-2-(1H-pyrrolo[2,3-b]pyridin-5-yloxy)benzamide] | 4.5 nM |
| CC(=O)N[C@H]1CC[C@H](Nc2ccc(S(=O)(=O)NC(=O)c3ccc(N4CCN(CC5=C(c6ccc(Cl)cc6)CC(C)(C)CC5)CC4)cc3Oc3cnc4[nH]ccc4c3)cc2[N+](=O)[O-])CC1 [Example 179, Trans-N-[(4-{[4-(acetylamino)cyclohexyl]amino}-3-nitrophenyl)sulfonyl]-4-(4-{[2-(4-chlorophenyl)-4,4-dimethylcyclohex-1-en-1-yl]methyl}piperazin-1-yl)-2-(1H-pyrrolo[2,3-b]pyridin-5-yloxy)benzamide] | 42.7 nM |
| CC1(C)CCC(CN2CCN(c3ccc(C(=O)NS(=O)(=O)c4ccc(OCC5(C)CCOCC5)c([N+](=O)[O-])c4)c(Oc4cnc5[nH]ccc5c4)c3)CC2)=C(c2ccc(Cl)cc2)C1 [Example 221, 4-(4-{[2-(4-chlorophenyl)-4,4-dimethylcyclohex-1-en-1-yl]methyl}piperazin-1-yl)-N-({4-[(4-methyltetrahydro-2H-pyran-4-yl)methoxy]-3-nitrophenyl}sulfonyl)-2-(1H-pyrrolo[2,3-b]pyridin-5-yloxy)benzamide] | 94.8 nM |
